Laboratory results: article PMC4620497 (Scientific Reports, 2015)
pIC50, pKd: −log10 of the molar value. Like-named read-outs stand apart in the source and are kept apart here.

What was measured:
[1] = molecular target: T1, DLK (Homo sapiens, UniProt Q12852); set-up: method as in earlier work; settings: Table S1; cited from earlier work
T1 sequence (Q12852 1-859): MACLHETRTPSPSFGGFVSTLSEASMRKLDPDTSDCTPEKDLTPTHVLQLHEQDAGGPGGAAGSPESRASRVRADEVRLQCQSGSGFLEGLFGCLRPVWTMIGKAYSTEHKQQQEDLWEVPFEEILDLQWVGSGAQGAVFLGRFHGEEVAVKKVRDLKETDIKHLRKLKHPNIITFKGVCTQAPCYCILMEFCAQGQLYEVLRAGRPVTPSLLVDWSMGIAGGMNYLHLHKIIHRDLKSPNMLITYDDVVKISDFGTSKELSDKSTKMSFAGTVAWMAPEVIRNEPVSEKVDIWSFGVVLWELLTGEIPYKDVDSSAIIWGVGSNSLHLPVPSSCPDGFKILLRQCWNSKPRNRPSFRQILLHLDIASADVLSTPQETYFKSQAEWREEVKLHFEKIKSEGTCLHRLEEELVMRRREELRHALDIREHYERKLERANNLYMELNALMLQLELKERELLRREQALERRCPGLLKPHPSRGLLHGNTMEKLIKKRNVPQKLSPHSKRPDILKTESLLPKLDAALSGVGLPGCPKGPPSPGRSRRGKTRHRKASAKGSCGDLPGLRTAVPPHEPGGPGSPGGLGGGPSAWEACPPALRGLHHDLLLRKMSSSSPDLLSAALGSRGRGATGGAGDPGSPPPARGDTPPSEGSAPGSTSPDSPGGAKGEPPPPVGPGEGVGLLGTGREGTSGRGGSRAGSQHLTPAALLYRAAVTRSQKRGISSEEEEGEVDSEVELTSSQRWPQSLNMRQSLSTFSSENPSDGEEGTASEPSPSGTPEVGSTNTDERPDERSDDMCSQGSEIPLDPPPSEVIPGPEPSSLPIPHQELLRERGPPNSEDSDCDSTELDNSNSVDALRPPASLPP

[2] = molecular target: T2, MEK4 (Homo sapiens, UniProt P45985); assay: KINOMEscan panel screen; type: binding; settings: read-out: Percent Control(%)
T2 construct: purchased DiscoveRx KINOMEscan (Ambit Biosciences)

[3] = molecular target: T3, CDK8 (Homo sapiens, UniProt P49336); assay: KINOMEscan panel screen; type: binding; settings: read-out: Percent Control(%)
T3 construct: purchased DiscoveRx KINOMEscan (Ambit Biosciences)

[4] = molecular target: T4, EPHB1 (Homo sapiens, UniProt P54762); assay: KINOMEscan panel screen; type: binding; settings: read-out: Percent Control(%)
T4 construct: purchased DiscoveRx KINOMEscan (Ambit Biosciences)

[5] = molecular target: T5, RIPK4 (Homo sapiens, UniProt P57078); assay: KINOMEscan panel screen; type: binding; settings: read-out: Percent Control(%)
T5 construct: purchased DiscoveRx KINOMEscan (Ambit Biosciences)

[6] = molecular target: T6, EGFR(T790M) (Homo sapiens, UniProt P00533, T790M); assay: KINOMEscan panel screen; type: binding; settings: read-out: Percent Control(%)
T6 construct: purchased DiscoveRx KINOMEscan (Ambit Biosciences)

[7] = molecular target: T7, MKNK1 (Homo sapiens, UniProt Q9BUB5); assay: KINOMEscan panel screen; type: binding; settings: read-out: Percent Control(%)
T7 construct: purchased DiscoveRx KINOMEscan (Ambit Biosciences)

[8] = Pharmacokinetic assessment in rats; type: in vivo, SD rats; settings: rat, mean; for Tmax / half-life / AUC(0-t) / Cmax / t1/2: 10 mg/kg; for AUC(0-t): read-out: AUC(0-36h)
Protocol: Preliminary pharmacokinetic characteristics of SKLB-677 were assessed on rats with SKLB-677 at a dose of 10 mg/kg P.O. and I.V. administration. The key pharmacokinetic parameters calculated are summarized in Supplementary Table S6.
SD rats (6 per group) were orally treated or injected intravenously with 10 mg/kg SKLB-677, followed by the collection of blood from the jugular vein into heparinized tubes at the appropriate times. The plasma was isolated by centrifugation. The plasma concentrations of SKLB-677 were determined using liquid–liquid extraction followed by high-performance liquid chromatography (HPLC) with tandem mass spectrometric detection. Noncompartmental pharmacokinetic parameters (AUC, Tmax, Cmax, and t1⁄2) were obtained from the blood concentration time profiles using DAS software.
Supplementary Table S6. The pharmacokinetic characteristics of SKLB-677. […]
standard deviation. t1/2: Mean half-life associat ed with the terminal slope and standard deviation.C max: Mean peak plasma concentration and standard deviation.
Tmax: Mean time to reach max imum plasma concentration and standard dev iation. CL:
Mean bod y clearance and standard deviation. Vss: Mean volume of distribution at steady state and standard deviation. The statistical anal ysis of data was shown as mean values and SD v alues (n= 6) .

[9] = molecular target: BTK (Homo sapiens, UniProt Q06187); assay: KINOMEscan panel screen; type: binding; settings: read-out: Percent Control(%)
[10] = molecular target: T8, KIT(V559D,T670I) (Homo sapiens, UniProt P10721, T670I/V559D); assay: KINOMEscan panel screen; type: binding; settings: read-out: Percent Control(%)
T8 construct: purchased DiscoveRx KINOMEscan (Ambit Biosciences)

[11] = molecular target: T9, JNK3 (Homo sapiens, UniProt P53779); assay: KINOMEscan panel screen; type: binding; settings: read-out: Percent Control(%)
T9 construct: purchased DiscoveRx KINOMEscan (Ambit Biosciences)

[12] = molecular target: T10, MAPKAPK5 (Homo sapiens, UniProt Q8IW41); assay: KINOMEscan panel screen; type: binding; settings: read-out: Percent Control(%)
T10 construct: purchased DiscoveRx KINOMEscan (Ambit Biosciences)

[13] = molecular target: T11, DDR2 (Homo sapiens, UniProt Q16832); assay: KINOMEscan panel screen; type: binding; settings: read-out: Percent Control(%)
T11 construct: purchased DiscoveRx KINOMEscan (Ambit Biosciences)

[14] = molecular target: T12, NLK (Homo sapiens, UniProt Q9UBE8); assay: KINOMEscan panel screen; type: binding; settings: read-out: Percent Control(%)
T12 construct: purchased DiscoveRx KINOMEscan (Ambit Biosciences)

[15] = tested on: THP-1; assay: MTT cell viability assay; settings: Homo sapiens, THP-1, 72 h
[16] = molecular target: T13, RSK2(Kin.Dom.2-C-terminal) (Homo sapiens, UniProt P51812); assay: KINOMEscan panel screen; type: binding; settings: read-out: Percent Control(%)
T13 construct: RSK2(Kin.Dom.2-C-terminal); purchased DiscoveRx KINOMEscan (Ambit Biosciences)

[17] = molecular target: T14, TNK2 (Homo sapiens, UniProt Q07912); assay: KINOMEscan panel screen; type: binding; settings: read-out: Percent Control(%)
T14 construct: purchased DiscoveRx KINOMEscan (Ambit Biosciences)

[18] = molecular target: T15, TRPM6 (Homo sapiens, UniProt Q9BX84); assay: KINOMEscan panel screen; type: binding; settings: read-out: Percent Control(%)
T15 construct: purchased DiscoveRx KINOMEscan (Ambit Biosciences)

[19] = molecular target: T16, PIK4CB (Homo sapiens, UniProt Q9UBF8); assay: KINOMEscan panel screen; type: binding; settings: read-out: Percent Control(%)
T16 construct: purchased DiscoveRx KINOMEscan (Ambit Biosciences)

[20] = molecular target: T17, BMPR2 (Homo sapiens, UniProt Q13873); assay: KINOMEscan panel screen; type: binding; settings: read-out: Percent Control(%)
T17 construct: purchased DiscoveRx KINOMEscan (Ambit Biosciences)

[21] = molecular target: T18, FLT3-wt (Homo sapiens, UniProt P36888); assay: KINOMEscan kinase binding assay (Kd)
T18 construct: DNA tag (qPCR read-out); purchased Ambit Biosciences (KINOMEscan service)

T7 sequence (Q9BUB5 whole entry): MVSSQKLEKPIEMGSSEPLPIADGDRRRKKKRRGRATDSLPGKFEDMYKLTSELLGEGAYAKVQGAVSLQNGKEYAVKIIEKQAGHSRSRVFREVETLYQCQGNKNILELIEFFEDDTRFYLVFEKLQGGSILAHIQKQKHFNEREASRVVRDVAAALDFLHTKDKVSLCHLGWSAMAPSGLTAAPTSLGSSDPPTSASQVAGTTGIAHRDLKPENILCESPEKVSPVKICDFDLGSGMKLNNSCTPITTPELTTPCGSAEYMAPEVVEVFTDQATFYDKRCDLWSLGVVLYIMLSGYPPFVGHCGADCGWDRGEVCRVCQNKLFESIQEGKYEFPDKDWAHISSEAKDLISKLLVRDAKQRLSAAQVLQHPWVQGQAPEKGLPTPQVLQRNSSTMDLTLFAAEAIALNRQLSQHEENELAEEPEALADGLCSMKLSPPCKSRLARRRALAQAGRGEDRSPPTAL
Chain of BTK (Q06187 whole entry): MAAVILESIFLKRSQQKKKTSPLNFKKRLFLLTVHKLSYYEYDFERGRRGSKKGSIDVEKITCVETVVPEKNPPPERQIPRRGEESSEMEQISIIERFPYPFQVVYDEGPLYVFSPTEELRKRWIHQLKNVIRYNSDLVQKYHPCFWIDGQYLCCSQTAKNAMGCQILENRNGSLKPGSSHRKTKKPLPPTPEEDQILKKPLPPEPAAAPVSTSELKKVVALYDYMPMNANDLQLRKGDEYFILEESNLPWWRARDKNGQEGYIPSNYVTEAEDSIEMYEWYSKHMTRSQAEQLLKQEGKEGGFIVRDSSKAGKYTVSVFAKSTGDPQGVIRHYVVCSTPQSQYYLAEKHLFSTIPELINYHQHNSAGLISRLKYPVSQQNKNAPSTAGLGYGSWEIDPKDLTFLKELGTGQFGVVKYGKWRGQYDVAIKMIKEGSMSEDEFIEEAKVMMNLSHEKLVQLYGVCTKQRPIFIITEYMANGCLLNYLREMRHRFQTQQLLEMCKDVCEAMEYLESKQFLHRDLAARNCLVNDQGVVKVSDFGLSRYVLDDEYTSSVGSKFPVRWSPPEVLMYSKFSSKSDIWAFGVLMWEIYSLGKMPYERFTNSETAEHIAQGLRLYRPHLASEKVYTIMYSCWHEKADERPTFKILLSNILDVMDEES
T16 sequence (Q9UBF8 whole entry): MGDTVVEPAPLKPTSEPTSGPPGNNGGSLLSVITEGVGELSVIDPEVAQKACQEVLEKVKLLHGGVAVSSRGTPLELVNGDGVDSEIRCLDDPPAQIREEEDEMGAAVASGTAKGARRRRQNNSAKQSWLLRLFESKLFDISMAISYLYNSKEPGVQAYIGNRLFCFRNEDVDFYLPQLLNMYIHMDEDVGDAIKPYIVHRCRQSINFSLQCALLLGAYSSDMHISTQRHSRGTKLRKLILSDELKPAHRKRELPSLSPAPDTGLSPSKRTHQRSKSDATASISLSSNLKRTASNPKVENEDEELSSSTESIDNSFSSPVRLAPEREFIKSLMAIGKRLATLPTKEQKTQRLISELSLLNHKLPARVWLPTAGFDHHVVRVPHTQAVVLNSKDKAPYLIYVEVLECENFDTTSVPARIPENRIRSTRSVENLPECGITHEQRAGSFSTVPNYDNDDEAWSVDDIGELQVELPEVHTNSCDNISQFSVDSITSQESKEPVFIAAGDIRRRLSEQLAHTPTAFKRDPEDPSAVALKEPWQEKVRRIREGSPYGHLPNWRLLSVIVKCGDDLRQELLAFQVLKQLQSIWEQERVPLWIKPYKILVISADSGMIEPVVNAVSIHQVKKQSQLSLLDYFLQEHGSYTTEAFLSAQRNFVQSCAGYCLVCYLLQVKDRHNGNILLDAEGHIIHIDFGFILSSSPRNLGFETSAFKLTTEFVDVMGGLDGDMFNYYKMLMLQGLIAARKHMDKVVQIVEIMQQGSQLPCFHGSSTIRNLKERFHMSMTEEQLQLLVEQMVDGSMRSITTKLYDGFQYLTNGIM
T8 sequence (P10721 26-976 V559D/T670I): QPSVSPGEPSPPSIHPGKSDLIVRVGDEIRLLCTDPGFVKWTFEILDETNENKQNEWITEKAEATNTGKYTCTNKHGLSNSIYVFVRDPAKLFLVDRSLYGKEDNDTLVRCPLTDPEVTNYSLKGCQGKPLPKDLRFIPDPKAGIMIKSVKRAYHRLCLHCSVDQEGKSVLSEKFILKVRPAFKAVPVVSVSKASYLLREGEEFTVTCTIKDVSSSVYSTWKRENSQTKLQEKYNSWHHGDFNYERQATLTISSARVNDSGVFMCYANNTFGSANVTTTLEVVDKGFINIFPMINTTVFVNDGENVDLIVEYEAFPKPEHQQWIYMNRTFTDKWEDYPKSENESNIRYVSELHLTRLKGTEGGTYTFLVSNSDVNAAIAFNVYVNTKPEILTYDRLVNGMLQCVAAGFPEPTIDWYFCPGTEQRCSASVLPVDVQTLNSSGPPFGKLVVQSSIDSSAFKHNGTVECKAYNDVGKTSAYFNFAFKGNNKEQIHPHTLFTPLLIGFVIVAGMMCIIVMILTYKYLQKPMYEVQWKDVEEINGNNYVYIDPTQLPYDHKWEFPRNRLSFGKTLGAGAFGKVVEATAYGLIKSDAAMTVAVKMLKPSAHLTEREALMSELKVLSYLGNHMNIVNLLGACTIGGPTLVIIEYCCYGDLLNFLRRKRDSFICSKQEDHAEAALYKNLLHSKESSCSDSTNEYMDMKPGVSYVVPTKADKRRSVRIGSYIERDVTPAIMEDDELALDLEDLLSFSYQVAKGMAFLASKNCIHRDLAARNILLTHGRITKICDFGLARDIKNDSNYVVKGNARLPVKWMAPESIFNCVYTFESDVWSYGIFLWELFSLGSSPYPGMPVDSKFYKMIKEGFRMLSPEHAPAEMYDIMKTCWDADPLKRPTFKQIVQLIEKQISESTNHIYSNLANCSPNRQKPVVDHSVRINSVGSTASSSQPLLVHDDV
T4 sequence (P54762 18-984): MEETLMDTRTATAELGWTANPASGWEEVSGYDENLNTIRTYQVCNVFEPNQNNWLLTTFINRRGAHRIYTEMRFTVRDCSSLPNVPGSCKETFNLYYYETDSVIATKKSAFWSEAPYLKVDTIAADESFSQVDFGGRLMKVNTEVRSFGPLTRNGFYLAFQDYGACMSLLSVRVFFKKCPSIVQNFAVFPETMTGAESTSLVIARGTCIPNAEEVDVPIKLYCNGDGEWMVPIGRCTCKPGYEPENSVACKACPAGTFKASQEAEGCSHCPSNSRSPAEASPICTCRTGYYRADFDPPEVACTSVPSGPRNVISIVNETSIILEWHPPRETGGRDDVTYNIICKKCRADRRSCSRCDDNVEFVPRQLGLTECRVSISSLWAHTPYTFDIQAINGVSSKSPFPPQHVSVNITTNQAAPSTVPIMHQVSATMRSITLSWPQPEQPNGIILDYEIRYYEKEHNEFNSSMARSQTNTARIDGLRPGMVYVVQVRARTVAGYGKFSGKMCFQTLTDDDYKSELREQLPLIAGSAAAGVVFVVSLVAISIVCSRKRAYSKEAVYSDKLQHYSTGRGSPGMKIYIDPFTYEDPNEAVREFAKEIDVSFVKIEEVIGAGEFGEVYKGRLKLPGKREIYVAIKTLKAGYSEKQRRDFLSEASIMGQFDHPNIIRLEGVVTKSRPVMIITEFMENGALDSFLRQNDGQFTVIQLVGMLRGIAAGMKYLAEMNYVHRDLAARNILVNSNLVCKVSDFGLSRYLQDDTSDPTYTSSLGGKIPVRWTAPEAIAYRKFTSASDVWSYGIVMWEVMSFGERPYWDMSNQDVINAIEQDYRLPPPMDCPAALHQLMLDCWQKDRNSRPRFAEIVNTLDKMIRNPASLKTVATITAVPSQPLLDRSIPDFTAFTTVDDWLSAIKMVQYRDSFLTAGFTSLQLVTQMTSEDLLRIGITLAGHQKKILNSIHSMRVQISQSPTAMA
T3 sequence (P49336 whole entry): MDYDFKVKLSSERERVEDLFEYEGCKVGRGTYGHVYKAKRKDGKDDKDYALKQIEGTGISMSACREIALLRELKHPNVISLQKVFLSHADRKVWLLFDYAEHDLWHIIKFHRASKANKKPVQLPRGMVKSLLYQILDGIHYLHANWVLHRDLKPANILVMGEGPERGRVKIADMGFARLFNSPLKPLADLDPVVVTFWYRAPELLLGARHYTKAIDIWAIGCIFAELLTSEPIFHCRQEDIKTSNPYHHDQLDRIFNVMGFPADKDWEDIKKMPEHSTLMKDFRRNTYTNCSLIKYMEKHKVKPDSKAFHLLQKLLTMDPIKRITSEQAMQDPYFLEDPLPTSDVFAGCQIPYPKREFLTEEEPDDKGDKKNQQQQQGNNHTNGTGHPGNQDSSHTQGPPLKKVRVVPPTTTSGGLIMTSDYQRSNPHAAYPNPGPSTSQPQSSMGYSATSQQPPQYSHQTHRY
T2 sequence (P45985 whole entry): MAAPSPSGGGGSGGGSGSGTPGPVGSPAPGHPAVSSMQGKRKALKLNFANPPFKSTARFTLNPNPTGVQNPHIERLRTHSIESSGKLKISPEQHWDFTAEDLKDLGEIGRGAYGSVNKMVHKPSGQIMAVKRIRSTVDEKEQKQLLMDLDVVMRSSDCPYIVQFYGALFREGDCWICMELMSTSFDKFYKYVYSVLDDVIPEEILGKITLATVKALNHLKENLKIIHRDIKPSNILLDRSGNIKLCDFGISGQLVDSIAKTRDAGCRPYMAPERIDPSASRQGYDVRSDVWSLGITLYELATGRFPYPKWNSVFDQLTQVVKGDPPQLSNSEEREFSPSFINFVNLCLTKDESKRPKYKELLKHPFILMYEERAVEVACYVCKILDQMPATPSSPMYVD
T13 sequence (P51812 422-679 limits assumed): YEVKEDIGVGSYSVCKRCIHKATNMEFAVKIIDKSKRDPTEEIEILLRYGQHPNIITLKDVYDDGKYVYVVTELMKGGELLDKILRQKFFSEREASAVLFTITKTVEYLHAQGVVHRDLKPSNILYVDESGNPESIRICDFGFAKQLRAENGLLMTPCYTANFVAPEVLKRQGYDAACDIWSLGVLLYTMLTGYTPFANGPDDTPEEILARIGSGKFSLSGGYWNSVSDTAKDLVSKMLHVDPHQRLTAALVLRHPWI

O=C(Nc1ccc(Oc2ncnc3[nH]ncc23)cc1)Nc1ccc(Cl)c(C(F)(F)F)c1 [Compound 1, 1-(4-(1H-pyrazolo[3,4-d]pyrimidin-4-yloxy)phenyl)-3-(4-chloro-3-(trifluoromethyl)phenyl)urea]
pIC50 [1]: < 5.00

CC(C)(C)c1cc(NC(=O)Nc2ccc(Oc3ncnc4[nH]ncc34)c(F)c2)no1 [SKLB-677, 1-(4-(1H-pyrazolo[3,4-d]pyrimidin-4-yloxy)-3-fluorophenyl)-3-(5-tert-butylisoxazol-3-yl)urea]
remaining binding at 10 µM [2]: 39% | remaining binding at 10 µM [3]: 3% | remaining binding at 10 µM [4]: 3.2% | remaining binding at 10 µM [5]: 0.85% | remaining binding at 10 µM [6]: 74% | remaining binding at 10 µM [7]: 0.1% | clearance ([8]; SD, plasma, iv, 10 mg/kg I.V.): 0.617 mL/min/kg | Vd ([8]; SD, plasma, iv, 10 mg/kg I.V., read-out: Vss (apparent volume of distribution, Vd)): 0.271 L/kg | Tmax ([8]; SD, plasma, iv, 10 mg/kg I.V.): 0.033 h | half-life ([8]; SD, plasma, iv, 10 mg/kg I.V.): 5.09 h | AUC(0-t) ([8]; SD, plasma, iv, 10 mg/kg I.V.): 272 µg·h/mL | Cmax ([8]; SD, plasma, iv, 10 mg/kg I.V., read-out: Cmax): 58200 ng/mL | Tmax ([8]; SD, plasma, po, 10 mg/kg P.O.): 3 h | half-life ([8]; SD, plasma, po, 10 mg/kg P.O.): 5.43 h | AUC(0-t) ([8]; SD, plasma, po, 10 mg/kg P.O.): 176 µg·h/mL | Cmax ([8]; SD, plasma, po, 10 mg/kg P.O., read-out: Cmax): 12300 ng/mL | t1/2 ([8]; 10 mg/kg I.V.): 5.1 h | CL ([8]; 10 mg/kg P.O.): 0.967 mL/min/kg | Vss ([8]; 10 mg/kg P.O.): 0.446 L/kg | Cmax ([8]; 10 mg/kg P.O.): 12280 ng/mL | t1/2 ([8]; 10 mg/kg P.O.): 5.4 h | remaining binding at 10 µM [9]: 100% | remaining binding at 10 µM [10]: 0.1% | remaining binding at 10 µM [11]: 18% | remaining binding at 10 µM [12]: 97% | remaining binding at 10 µM [13]: 61% | remaining binding at 10 µM [14]: 1.2% | pIC50 [15]: < 5.00 | remaining binding at 10 µM [16]: 100% | remaining binding at 10 µM [17]: 37% | remaining binding at 10 µM [18]: 89% | remaining binding at 10 µM [19]: 52% | remaining binding at 10 µM [20]: 14% | pKd [21]: 9.13
